Data: PMC5039535, “Dichotocejpins A–C: New Diketopiperazines from a Deep-Sea-Derived Fungus Dichotomomyces cejpii FS110” (Marine Drugs, 2016)

What was measured:
[1] = test system: NCI-H460 tumor cell line; test: SRB cytotoxicity assay, NCI-H460; format: cell-based, human; details: SRB method, mean ± s, n=3
Protocol: (§1) The in vitro cytotoxicities of compounds 1–11 were evaluated against the SF-268, MCF-7, NCI-H460, and HepG-2 tumor cell lines by the Sulforhodamine B (SRB) method.
(§2) Cytotoxicities of compounds (1–11) were assayed against four tumor cell lines SF-268, MCF-7, NCI-H460, and HepG-2. Assays were performed by the SRB method.

[2] = test system: SF-268 tumor cell line; test: SRB cytotoxicity assay, SF-268; format: cell-based, human; details: SRB method, mean ± s, n=3
Protocol: as §1, §2

[3] = test system: HepG-2 tumor cell line; test: SRB cytotoxicity assay, HepG-2; format: cell-based, human; details: SRB method, mean ± s, n=3
Protocol: as §1, §2

[4] = test system: MCF-7 tumor cell line; test: SRB cytotoxicity assay, MCF-7; format: cell-based, human; details: SRB method, mean ± s, n=3
Protocol: as §1, §2

[5] = test system: SF-268, MCF-7, NCI-H460, and HepG-2 tumor cell lines; test: SRB cytotoxicity, four tumor cell lines taken together; format: cell-based, human; details: for cytotoxic / inhibitory activity against the four tumor cell lines (in words): SF-268, MCF-7, NCI-H460, HepG-2, SRB method; for IC50: Homo sapiens, range over SF-268, MCF-7, NCI-H460, HepG-2, read-out: IC50 values against the four tumor cell lines
Protocol: as §1, §2

[6] = molecular target: α-glucosidase; test: α-glucosidase inhibitory activity assay; format: biochemical; details: in vitro; mean ± s, n=3
Protocol: All compounds were evaluated in vitro for α-glucosidase inhibitory activities.
An assay of α-glucosidase inhibitory activity was performed as previously described.

| Compound | IC50 ([1]; Homo sapiens, NCI-H460) | IC50 ([2]; Homo sapiens, SF-268) | IC50 ([3]; Homo sapiens, HepG2) | IC50 ([4]; Homo sapiens, MCF7) | cytotoxic / inhibitory activity against the four tumor cell lines (in words) [5] | IC50 [6] | IC50 [5] | IC50 [1] | IC50 [2] | IC50 [3] | IC50 [4] |
| --- | --- | --- | --- | --- | --- | --- | --- | --- | --- | --- | --- |
| CSC1(CO)C(=O)n2c(cc3ccccc32)C(=O)N1C (stereo not shown) [Compound 1, dichotocejpin A] | > 100 µM | 35.7 ± 2.1 µM | 28.9 ± 3 µM | 29.5 ± 2.3 µM | inactive or weak | 138 ± 6.7 µM |  |  |  |  |  |
| CN1C(=O)[C@]23Cc4ccccc4N2C(=O)[C@@]1(CO)SS3 [Compound 4, 6-deoxy-5a,6-didehydrogliotoxin] | 1.27 ± 0.04 µM | 1.35 ± 0.05 µM | 1.52 ± 0.03 µM | 0.68 ± 0.02 µM |  | > 500 µM | 0.08 to 1.52 µM |  |  |  |  |
| CS[C@]1(CO)C(=O)N2[C@H]3C(=CC=C[C@@H]3OC(C)=O)C[C@@]2(SC)C(=O)N1C [Compound 10, 6-acetylbis(methylthio)gliotoxin] | 5.4 ± 0.6 µM | 34 ± 3.6 µM | 7 ± 0.17 µM | 3.1 ± 0.1 µM | significant inhibitory activities | > 500 µM |  |  |  |  |  |
| bisdethiobis(methylthio)gliotoxin [Compound 9] |  |  |  |  |  | > 500 µM |  | > 100 µM | > 100 µM | > 100 µM | > 100 µM |
| N.N.[Cl][Pt][Cl] [cisplatin, reference compound] |  |  |  |  |  |  |  | 2.43 ± 0.15 µM | 2.37 ± 0.35 µM | 1.39 ± 0.18 µM | 3.09 ± 0.27 µM |
| CS[C@@]1(CO)NC(=O)[C@@](Cc2ccccc2)(SC)NC1=O [Compound 7, bis-N-norgliovictin] | > 100 µM | > 100 µM | > 100 µM | > 100 µM |  | > 500 µM |  |  |  |  |  |
| CN1C(=O)[C@]23CC4=CC=C[C@H](O)[C@H]4N2C(=O)[C@@]1(CO)SS3 [Compound 5, gliotoxin] | 0.24 ± 0.01 µM | 0.24 ± 0.1 µM | 0.21 ± 0.01 µM | 0.08 µM |  | > 500 µM | 0.08 to 1.52 µM |  |  |  |  |
| C=C1C(=O)N2C3C(=CC=CC3OC(C)=O)CC2(O)C(=O)N1C (stereo not shown) [Compound 2, dichotocejpin B] | > 100 µM | > 100 µM | > 100 µM | > 100 µM | inactive or weak | > 500 µM |  |  |  |  |  |
| C=c1c(=O)n2c(cc3ccccc32)c(=O)n1C [Compound 11, 1,2,3,4-tetrahydro-2-methyl-3-methylene-1,4-dioxopyrazino[1,2-a]indole] | 12.3 ± 0.24 µM | 3.3 ± 0.28 µM | 2.29 ± 0.3 µM | 4.67 ± 1.4 µM | significant inhibitory activities | > 500 µM |  |  |  |  |  |
| CN1C(=O)[C@]2(O)Cc3ccccc3N2C(=O)[C@H]1CO [Compound 3, dichotocejpin C] | > 100 µM | > 100 µM | > 100 µM | > 100 µM | inactive or weak | > 500 µM |  |  |  |  |  |
| CC(=O)O[C@H]1C=CC=C2C[C@]34SS[C@](CO)(C(=O)N3C21)N(C)C4=O (stereo partly shown) [Compound 6, acetylgliotoxin] | 0.32 ± 0.02 µM | 0.25 ± 0.03 µM | 0.49 ± 0.07 µM | 0.22 ± 0.04 µM |  | > 500 µM | 0.08 to 1.52 µM |  |  |  |  |
| CSC1(Cc2ccccc2)NC(=O)C(CO)NC1=O (stereo not shown) [Compound 8, 3-benzyl-6-(hydroxymethyl)-3-(methylthio)piperazine-2,5-dione] | > 100 µM | > 100 µM | > 100 µM | > 100 µM |  | > 500 µM |  |  |  |  |  |
